pIC50: −log10 of the molar value.
What follows are molecules tested against CDK2/Cyclin E1 (Homo sapiens (Human), UniProt P24941) (assay: CDK2/Cyclin E1 HTRF enzyme activity assay). Conditions: 1 mM ATP.
Format: biochemical
Description: Assays are conducted in white 384-well polystyrene plates in a final reaction volume of 8 μL. […] HTRF signals are read after 1 hour at room temperature on a PHERAstar FS plate reader (BMG Labtech). Data is analyzed with IDBS XLFit and GraphPad Prism 5.0 software using a three or four parameter dose response curve to determine IC50 for each compound.

pIC50, > 7.30:
Cc1cc(CN2CCN(C(C)C)CC2)ccc1-n1cc(-c2nc(NC3CCN(S(=O)(=O)c4cn(C)cn4)CC3)ncc2Cl)cn1 [Example 247, 5-Chloro-4-(1-(4-((4-isopropylpiperazin-1-yl)methyl)-2-methylphenyl)-1H-pyrazol-4-yl)-N-(1-((1-methyl-1H-imidazole-4-yl)sulfonyl)piperidin-4-yl)pyrimidin-2-amine]
Cc1cc(CN2CCN(C)C(=O)C2)ccc1-n1cc(-c2nc(NC3CCN(S(=O)(=O)c4cn(C)cn4)CC3)ncc2Cl)cn1 [Example 248, 4-(4-(4-(5-Chloro-2-((1-((1-methyl-1H-imidazol-4-yl)sulfonyl)piperidin-4-yl)amino)pyrimidin-4-yl)-1H-pyrazol-1-yl)-3-methylbenzyl)-1-methylpiperazin-2-one]
Cc1nc(CN2CCN(C)CC2)ccc1-n1cc(-c2nc(NC3CCN(S(=O)(=O)c4cn(C)cn4)CC3)ncc2Cl)cn1 [Example 249, 5-Chloro-N-(1-((1-methyl-1H-imidazol-4-yl)sulfonyl)piperidin-4-yl)-4-(1-(2-methyl-6-((4-methylpiperazin-1-yl)methyl)pyridin-3-yl)-1H-pyrazol-4-yl)pyrimidin-2-amine]
CCN1CCN(Cc2ccc(-n3cc(-c4nc(NC5CCN(S(=O)(=O)c6cn(C)cn6)CC5)ncc4Cl)cn3)c(C)n2)CC1 [Example 250, 5-Chloro-4-(1-(6-((4-ethylpiperazin-1-yl)methyl)-2-methylpyridin-3-yl)-1H-pyrazol-4-yl)-N-(1-((1-methyl-1H-imidazol-4-yl)sulfonyl)piperidin-4-yl)pyrimidin-2-amine]
Cc1nc(CN2CCN(C(C)C)CC2)ccc1-n1cc(-c2nc(NC3CCN(S(=O)(=O)c4cn(C)cn4)CC3)ncc2Cl)cn1 [Example 251, 5-Chloro-4-(1-(6-((4-isopropylpiperazin-1-yl)methyl)-2-methylpyridin-3-yl)-1H-pyrazol-4-yl)-N-(1-((1-methyl-1H-imidazol-4-yl)sulfonyl)piperidin-4-yl)pyrimidin-2-amine]
Cc1nc(CN2CCN(C)CC2)ccc1-n1cc(-c2nc(NC3CCN(S(=O)(=O)c4cn(C)cn4)CC3)ncc2C(F)(F)F)cn1 [Example 252, N-(1-((1-Methyl-1H-imidazol-4-yl)sulfonyl)piperidin-4-yl)-4-(1-(2-methyl-6-((4-methylpiperazin-1-yl)methyl)pyridin-3-yl)-1H-pyrazol-4-yl)-5-(trifluoromethyl)pyrimidin-2-amine]
CCN1CCN(Cc2ccc(-n3cc(-c4nc(NC5CCN(S(=O)(=O)c6cn(C)cn6)CC5)ncc4C(F)(F)F)cn3)c(C)n2)CC1 [Example 253, 4-(1-(6-((4-Ethylpiperazin-1-yl)methyl)-2-methylpyridin-3-yl)-1H-pyrazol-4-yl)-N-(1-((1-methyl-1H-imidazol-4-yl)sulfonyl)piperidin-4-yl)-5-(trifluoromethyl)pyrimidin-2-amine]
Cc1nc(CN2CCN(C(C)C)CC2)ccc1-n1cc(-c2nc(NC3CCN(S(=O)(=O)c4cn(C)cn4)CC3)ncc2C(F)(F)F)cn1 [Example 254, 4-(1-(6-((4-Isopropylpiperazin-1-yl)methyl)-2-methylpyridin-3-yl)-1H-pyrazol-4-yl)-N-(1-((1-methyl-1H-imidazol-4-yl)sulfonyl)piperidin-4-yl)-5-(trifluoromethyl)pyrimidin-2-amine]
Cc1nc(CN2CCN(C)CC2)ccc1-n1cc(-c2nc(N[C@H]3CCN(S(=O)(=O)c4cn(C)cn4)C[C@H]3C)ncc2C(F)(F)F)cn1 [Example 255, N-((3R,4S)-3-methyl-1-((1-methyl-1H-imidazol-4-yl)sulfonyl)piperidin-4-yl)-4-(1-(2-methyl-6-((4-methylpiperazin-1-yl)methyl)pyridin-3-yl)-1H-pyrazol-4-yl)-5-(trifluoromethyl)pyrimidin-2-amine]
CCN1CCN(Cc2ccc(-n3cc(-c4nc(N[C@H]5CCN(S(=O)(=O)c6cn(C)cn6)C[C@H]5C)ncc4C(F)(F)F)cn3)c(C)n2)CC1 [Example 256, 4-(1-(6-((4-Ethylpiperazin-1-yl)methyl)-2-methylpyridin-3-yl)-1H-pyrazol-4-yl)-N-((3R,4S)-3-methyl-1-((1-methyl-1H-imidazol-4-yl)sulfonyl)piperidin-4-yl)-5-(trifluoromethyl)pyrimidin-2-amine]
Cc1nc(CN2CCN(C(C)C)CC2)ccc1-n1cc(-c2nc(N[C@H]3CCN(S(=O)(=O)c4cn(C)cn4)C[C@H]3C)ncc2C(F)(F)F)cn1 [Example 257, 4-(1-(6-((4-Isopropylpiperazin-1-yl)methyl)-2-methylpyridin-3-yl)-1H-pyrazol-4-yl)-N-((3R,4S)-3-methyl-1-((1-methyl-1H-imidazol-4-yl)sulfonyl)piperidin-4-yl)-5-(trifluoromethyl)pyrimidin-2-amine]
CN1CCN(Cc2ccc(-n3cc(-c4nc(NC5CCN(S(=O)(=O)c6ccccn6)CC5)ncc4C#N)cn3)c(Cl)c2)CC1 [Example 258, 4-(1-(2-Chloro-4-((4-methylpiperazin-1-yl)methyl)phenyl)-1H-pyrazol-4-yl)-2-((1-(pyridin-2-ylsulfonyl)piperidin-4-yl)amino)pyrimidine-5-carbonitrile]
CN1CCN(Cc2ccc(-n3cc(-c4nc(NC5CCN(S(=O)(=O)C6CC6)CC5)ncc4C#N)cn3)c(Cl)c2)CC1 [Example 259, 4-(1-(2-Chloro-4-((4-methylpiperazin-1-yl)methyl)phenyl)-1H-pyrazol-4-yl)-2-((1-(cyclopropylsulfonyl)piperidin-4-yl)amino)pyrimidine-5-carbonitrile]
CN1CCN(Cc2ccc(-n3cc(-c4nc(NC5CCN(S(=O)(=O)c6cn(C)cn6)CC5)ncc4C#N)cn3)c(Cl)c2)CC1 [Example 261, 4-(1-(2-Chloro-4-((4-methylpiperazin-1-yl)methyl)phenyl)-1H-pyrazol-4-yl)-2-((1-((1-methyl-1H-imidazol-4-yl)sulfonyl)piperidin-4-yl)amino)pyrimidine-5-carbonitrile]
Cc1nc(CNC(C)(C)C)ccc1-n1cc(-c2nc(NC3CCN(S(C)(=O)=O)CC3)ncc2C#N)cn1 [Example 262, 4-(1-(6-((tert-Butylamino)methyl)-2-methylpyridin-3-yl)-1H-pyrazol-4-yl)-2-((1-(methylsulfonyl)piperidin-4-yl)amino)pyrimidine-5-carbonitrile]
Cc1nc(CNC(C)(C)C2CC2)ccc1-n1cc(-c2nc(NC3CCN(S(C)(=O)=O)CC3)ncc2C#N)cn1 [Example 263, 4-(1-(6-(((2-Cyclopropylpropan-2-yl)amino)methyl)-2-methylpyridin-3-yl)-1H-pyrazol-4-yl)-2-((1-(methylsulfonyl)piperidin-4-yl)amino)pyrimidine-5-carbonitrile]
Cc1nc(CNC(C)(C)C(N)=O)ccc1-n1cc(-c2nc(NC3CCN(S(C)(=O)=O)CC3)ncc2C#N)cn1 [Example 264, 2-(((5-(4-(5-Cyano-2-((1-(methylsulfonyl)piperidin-4-yl)amino)pyrimidin-4-yl)-1H-pyrazol-1-yl)-6-methylpyridin-2-yl)methyl)amino)-2-methylpropanamide]
Cc1nc(CN[C@]2(C)C[C@H](O)C2)ccc1-n1cc(-c2nc(NC3CCN(S(C)(=O)=O)CC3)ncc2C#N)cn1 [Example 265]
CNCc1ccc(-n2cc(-c3nc(NC4CCN(S(=O)(=O)c5cn(C)cn5)CC4)ncc3Cl)cn2)c(C)n1 [Example 266, 5-Chloro-N-(1-((1-methyl-1H-imidazol-4-yl)sulfonyl)piperidin-4-yl)-4-(1-(2-methyl-6-((methylamino)methyl)pyridin-3-yl)-1H-pyrazol-4-yl)pyrimidin-2-amine]
CCNCc1ccc(-n2cc(-c3nc(NC4CCN(S(=O)(=O)c5cn(C)cn5)CC4)ncc3Cl)cn2)c(C)n1 [Example 267, 5-Chloro-4-(1-(6-((ethylamino)methyl)-2-methylpyridin-3-yl)-1H-pyrazol-4-yl)-N-(1-((1-methyl-1H-imidazol-4-yl)sulfonyl)piperidin-4-yl)pyrimidin-2-amine]
CNCc1ccc(-n2cc(-c3nc(NC4CCN(S(=O)(=O)c5cn(C)cn5)CC4)ncc3C(F)(F)F)cn2)c(C)n1 [Example 268, N-(1-((1-Methyl-1H-imidazol-4-yl)sulfonyl)piperidin-4-yl)-4-(1-(2-methyl-6-((methylamino)methyl)pyridin-3-yl)-1H-pyrazol-4-yl)-5-(trifluoromethyl)pyrimidin-2-amine]
CCNCc1ccc(-n2cc(-c3nc(NC4CCN(S(=O)(=O)c5cn(C)cn5)CC4)ncc3C(F)(F)F)cn2)c(C)n1 [Example 269, 4-(1-(6-((Ethylamino)methyl)-2-methylpyridin-3-yl)-1H-pyrazol-4-yl)-N-(1-((1-methyl-1H-imidazol-4-yl)sulfonyl)piperidin-4-yl)-5-(trifluoromethyl)pyrimidin-2-amine]
CNCc1ccc(-n2cc(-c3nc(N[C@H]4CCN(S(=O)(=O)c5cn(C)cn5)C[C@H]4C)ncc3C(F)(F)F)cn2)c(C)n1 [Example 270, N-((3R,4S)-3-Methyl-1-((1-methyl-1H-imidazol-4-yl)sulfonyl)piperidin-4-yl)-4-(1-(2-methyl-6-((methylamino)methyl)pyridin-3-yl)-1H-pyrazol-4-yl)-5-(trifluoromethyl)pyrimidin-2-amine]
CCNCc1ccc(-n2cc(-c3nc(N[C@H]4CCN(S(=O)(=O)c5cn(C)cn5)C[C@H]4C)ncc3C(F)(F)F)cn2)c(C)n1 [Example 271, 4-(1-(6-((Ethylamino)methyl)-2-methylpyridin-3-yl)-1H-pyrazol-4-yl)-N-((3R,4S)-3-methyl-1-((1-methyl-1H-imidazol-4-yl)sulfonyl)piperidin-4-yl)-5-(trifluoromethyl)pyrimidin-2-amine]
